This note sets out measurements from PMC4891657, “Orexin 2 Receptor Antagonism is Sufficient to Promote NREM and REM Sleep from Mouse to Man” (Scientific Reports, 2016).

Positions count from the first letter of the chain named.

Broadly, the Ki is a dissociation constant, usually derived from enzyme kinetics or from competition with a known ligand.

In one experiment the target is T1, hOX1R (Homo sapiens, UniProt O43613).
T1 construct: expressed in transfected cells; host or cells: CHO-K1
T1 sequence (O43613 1-425): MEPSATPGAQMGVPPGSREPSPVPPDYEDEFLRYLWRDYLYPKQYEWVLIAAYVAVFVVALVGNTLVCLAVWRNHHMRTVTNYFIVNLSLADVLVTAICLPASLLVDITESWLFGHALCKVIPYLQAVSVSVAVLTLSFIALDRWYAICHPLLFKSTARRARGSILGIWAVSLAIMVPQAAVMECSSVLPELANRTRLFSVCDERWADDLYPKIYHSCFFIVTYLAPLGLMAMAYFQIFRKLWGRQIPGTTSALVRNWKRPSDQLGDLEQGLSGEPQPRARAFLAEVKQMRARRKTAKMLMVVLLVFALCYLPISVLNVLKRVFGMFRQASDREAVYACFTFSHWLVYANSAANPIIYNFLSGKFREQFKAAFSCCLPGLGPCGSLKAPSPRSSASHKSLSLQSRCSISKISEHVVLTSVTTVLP
Description: Inhibition of orexin-peptide-A-induced calcium mobilization in CHO cells, human OX1R. It is filed as cell-based. As for the experimental part: (§1) MK-1064 was evaluated for its ability to inhibit orexin-peptide-A-induced calcium mobilization in CHO cell lines separately expressing OX1R and OX2R from mice, rats, rabbits, dogs, rhesus monkeys and humans.
(§2) Binding and functional blockade of OX1R and OX2R with MK-1064 relative to other 2-SORAs and the DORA, MK-6096, were assessed using membranes from Chinese hamster ovary (CHO)-K1 cells (American Type Tissue Collection, Manassas, VA) transfected to express human, mouse, rat, rabbit, dog, or rhesus monkey OX1R or OX2R receptors, as described previously. The kinetics of binding to human OX2R was assessed by radioligand displacement on CHO-K1 cells expressing the receptor. […] The ON rate analysis was performed by presoaking GF/B filters in 0.3% polyethyleneimine (Sigma) using a Skatron 12-well cell harvester and cold buffer at the indicated time points after addition. For OFF rate determination, binding reactions were allowed to proceed to equilibrium and terminated with 1000x [Kd] of unlabeled antagonist and filtered as above at pre-determined time points. Ultima Gold^TM (PerkinElmer 6013327) scintillation cocktail was added to each filter disc and counted on a PerkinElmer TriCarb 2910 scintillation counter. Data were analyzed using GraphPad® Prism v 6.04 (San Diego, CA, USA). The KON rate was determined according to the equation, KON = (KOBS − KOFF)/[ligand].
A general note: Calcium flux is commonly read through the fluorescence of an indicator in the cells.

Experiment [1] deals with T2, OX2R (Macaca mulatta, UniProt F7CZM2).
T2 sequence (F7CZM2 1-444): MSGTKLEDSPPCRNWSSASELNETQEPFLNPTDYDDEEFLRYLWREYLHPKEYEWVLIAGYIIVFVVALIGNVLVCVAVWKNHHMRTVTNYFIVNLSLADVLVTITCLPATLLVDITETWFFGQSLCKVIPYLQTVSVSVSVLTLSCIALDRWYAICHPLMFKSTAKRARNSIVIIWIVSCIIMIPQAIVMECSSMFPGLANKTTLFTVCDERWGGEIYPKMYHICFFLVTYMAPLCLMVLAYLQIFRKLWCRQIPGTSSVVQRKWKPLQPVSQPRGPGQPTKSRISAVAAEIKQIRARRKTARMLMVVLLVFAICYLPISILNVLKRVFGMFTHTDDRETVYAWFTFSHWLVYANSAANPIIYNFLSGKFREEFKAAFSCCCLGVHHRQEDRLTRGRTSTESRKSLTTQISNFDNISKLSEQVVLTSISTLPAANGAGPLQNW
Description: Radio-ligand displacement binding, CHO-K1 membranes, rhesus OX2R. Also on record: species or system rhesus monkey. The note with it: for fold OX2R selectivity (Ki): OX1R Ki / OX2R Ki; for Ki: read-out: OX2R affinity (Ki). As to the method: as §1, §2

In experiment [2] the target is T3, OX2R (Homo sapiens, UniProt O43614).
T3 sequence (O43614 1-444): T2 sequence (F7CZM2 1-444) with L113V, S195T, M196V, I286M, V308I, T334A, D337E
The experiment is described as follows: Radio-ligand displacement binding, CHO-K1 membranes, human OX2R. Further details: expressed in transfected cells; host or cells: CHO-K1. The note with it: for fold OX2R selectivity (Ki): OX1R Ki / OX2R Ki; for Ki: read-out: OX2R affinity (Ki). As to the method: as §1, §2

Experiment [3] concerns the target T4, OX1R (Oryctolagus cuniculus, UniProt G1SPJ3).
T4 sequence (G1SPJ3 1-416): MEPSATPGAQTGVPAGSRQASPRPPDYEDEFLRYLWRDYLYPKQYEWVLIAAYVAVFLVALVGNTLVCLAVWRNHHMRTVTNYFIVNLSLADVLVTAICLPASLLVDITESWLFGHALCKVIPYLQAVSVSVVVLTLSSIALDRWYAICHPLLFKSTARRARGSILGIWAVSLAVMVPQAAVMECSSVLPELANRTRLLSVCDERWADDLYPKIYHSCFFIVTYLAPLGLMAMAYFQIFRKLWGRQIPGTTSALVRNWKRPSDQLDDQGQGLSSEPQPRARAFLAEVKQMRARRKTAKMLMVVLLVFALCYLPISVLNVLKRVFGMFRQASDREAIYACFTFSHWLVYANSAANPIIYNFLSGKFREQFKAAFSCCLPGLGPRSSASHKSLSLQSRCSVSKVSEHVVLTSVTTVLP
Description: Radio-ligand displacement binding, CHO-K1 membranes, rabbit OX1R. The note with it: read-out: OX1R affinity (Ki). As for the experimental part:
as §1, §2

Experiment [4] deals with T5, OX1R (Rattus norvegicus, UniProt P56718).
T5 construct: expressed in transfected cells; host or cells: CHO-K1
T5 sequence (P56718 1-416): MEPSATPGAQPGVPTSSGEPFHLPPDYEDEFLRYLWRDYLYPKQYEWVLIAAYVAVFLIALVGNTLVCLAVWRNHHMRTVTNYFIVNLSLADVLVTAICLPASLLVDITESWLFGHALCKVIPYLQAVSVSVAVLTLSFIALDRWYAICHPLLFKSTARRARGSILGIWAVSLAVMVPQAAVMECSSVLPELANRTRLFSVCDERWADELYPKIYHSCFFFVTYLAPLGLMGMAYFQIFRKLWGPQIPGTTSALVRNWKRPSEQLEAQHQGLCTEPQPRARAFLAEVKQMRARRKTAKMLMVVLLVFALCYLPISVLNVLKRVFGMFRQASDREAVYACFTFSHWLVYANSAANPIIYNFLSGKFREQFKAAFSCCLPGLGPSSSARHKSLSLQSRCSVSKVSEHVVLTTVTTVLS
Description: Inhibition of orexin-peptide-A-induced calcium mobilization in CHO cells, rat OX1R. The format is cell-based. As for the experimental part:
as §1, §2

On to `COc1ccc(CNC(=O)c2cc(-c3cc(Cl)cc(Cl)c3)cnc2-c2cccnc2)cc1OC` [2-SORA-18], for which the results for the Kb at hOX1R and on OX1R [4] were 161 nM and 1050 nM, respectively. The “fold OX2R selectivity (Ki)” value was “[1200] fold” on OX2R [1] and “[1000] fold” at OX2R [2]. Moreover, the Ki on OX2R [1] was determined as 0.11 nM; at OX2R [2], 0.1 nM; at OX1R [3], 241 nM.

For the compound `COc1ccc(CNC(=O)c2cc(-c3cncc(C)c3)ncc2-c2nccs2)nc1OC` [MK-3697], the Ki on OX2R [1] is 1.14 nM; at OX2R [2], 0.97 nM; at OX1R [3] it was 4740 nM. The Kb at OX1R [4] came to 36400 nM.

With `Cc1ccc(-c2ncccn2)c(C(=O)N2C[C@H](COc3ccc(F)cn3)CC[C@H]2C)c1` [MK-6096], the Kb on hOX1R was 11 nM; on OX1R [4] it was 10 nM. In addition, the entries for the “fold OX2R selectivity (Ki)” value on OX2R [1] and at OX2R [2] were “[28.4] fold” and “[8.1] fold”, respectively. In addition, the Ki on OX2R [1] stood at 0.44 nM; on OX2R [2] it was 0.31 nM; at OX1R [3], 2.6 nM.

For the compound `COc1ccc(CNC(=O)c2cc(-c3cncc(Cl)c3)cnc2-c2ccccn2)nc1OC` [MK-1064, 5″-chloro-N-[(5,6-dimethoxypyridin-2-yl)methyl]-2,2′:5′, 3″-terpyridine-3′-carbo xamide], the Kb on hOX1R is 1870 nM; on OX1R [4], 7970 nM. For the same compound, the “fold OX2R selectivity (Ki)” value on OX2R [1] is “[1315] fold”; at OX2R [2], “[2885] fold”. Also, the Ki on OX2R [1] amounted to 0.62 nM; at OX2R [2] it was 0.52 nM; on OX1R [3] it was 2440 nM.

In the case of `COc1ccc(CNC(=O)c2cc(-c3cncc(C)c3)ncc2-c2ccccc2)nc1OC` [2-SORA-7], the Kb stood at 4360 nM at hOX1R and 58300 nM on OX1R [4]. In addition, the “fold OX2R selectivity (Ki)” value on OX2R [1] was “[1994] fold”; on OX2R [2] it was “[5957] fold”. The Ki at OX2R [1] was 0.67 nM; at OX2R [2] it was 0.47 nM; at OX1R [3], 4390 nM.
